Values of other authors, collected in US20070066602A1, “Process for Making Olanzapine Form I” (priority 2005, published 2007).

What was measured:
[1] = at pH 6.8; free base, crystalline solid

Row | SMILES | solubility in water (qualitative) | solubility [1]
1 | Cc1cc2c(s1)Nc1ccccc1N=C2N1CCN(C)CC1.O=C(O)c1ccccc1 [Olanzapine benzoate] | sparingly soluble in water | –
2 | Cc1cc2c(s1)Nc1ccccc1N=C2N1CCN(C)CC1 [olanzapine, Olanzapine] | insoluble in water | about 0.02 mg/ml
